According to the supplement of paper PMC10307832:

What was measured:
Test in all cases: relative viability (nuclei count vs DMSO), 5 days (fraction); higher = more cells survive
Decitabine + Crizotinib = compound: Nc1ncn([C@H]2C[C@H](O)[C@@H](CO)O2)c(=O)n1 [Decitabine] + C[C@@H](Oc1cc(-c2cnn(C3CCNCC3)c2)cnc1N)c1c(Cl)ccc(F)c1Cl [Crizotinib] (partner 1 µM)
Method in brief: (§1)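 Relative viability equals treated-well nuclei counts divided by vehicle-well nuclei counts. Counts came from 4× images of lung cancer cell lines grown in 1536-well plates for 5 days after pin-tool dosing on the day after seeding. Dosing used one drug alone or a fixed anchor-drug dose plus five library-drug doses (not always all listed) in √10 steps, and values are medians of duplicate plates.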

Halofuginone + Foretinib = compound: O=C(C[C@H]1NCCC[C@@H]1O)Cn1cnc2cc(Br)c(Cl)cc2c1=O (racemic) [Halofuginone] + COc1cc2c(Oc3ccc(NC(=O)C4(C(=O)Nc5ccc(F)cc5)CC4)cc3F)ccnc2cc1OCCCN1CCOCC1 [Foretinib] (partner 0.25 µM)
Method in brief: as §1

Halofuginone + Dasatinib = compound: O=C(C[C@H]1NCCC[C@@H]1O)Cn1cnc2cc(Br)c(Cl)cc2c1=O (racemic) [Halofuginone] + Cc1nc(Nc2ncc(C(=O)Nc3c(C)cccc3Cl)s2)cc(N2CCN(CCO)CC2)n1 [Dasatinib] (partner 0.075 µM)
Method in brief: as §1

[1] = compound: O=C(C[C@H]1NCCC[C@@H]1O)Cn1cnc2cc(Br)c(Cl)cc2c1=O (racemic) [Halofuginone] + N=C(N)NC(=N)NCCc1ccccc1 [Phenformin] (partner 250 µM)
Method in brief: as §1

Row | Cell Line | relative viability (Decitabine + Crizotinib; first compound 0.04 µM) | relative viability (Decitabine + Crizotinib; first compound 0.1265 µM) | relative viability (Decitabine + Crizotinib; first compound 0.4 µM) | relative viability (Decitabine + Crizotinib; first compound 1.265 µM) | relative viability (Decitabine + Crizotinib; first compound 4 µM) | relative viability (Halofuginone + Foretinib; first compound 0.001 µM) | relative viability (Halofuginone + Foretinib; first compound 0.003162 µM) | relative viability (Halofuginone + Foretinib; first compound 0.01 µM) | relative viability (Halofuginone + Foretinib; first compound 0.03162 µM) | relative viability (Halofuginone + Foretinib; first compound 0.1 µM) | relative viability (Halofuginone + Dasatinib; first compound 0.001 µM) | relative viability (Halofuginone + Dasatinib; first compound 0.003162 µM) | relative viability (Halofuginone + Dasatinib; first compound 0.01 µM) | relative viability (Halofuginone + Dasatinib; first compound 0.03162 µM) | relative viability (Halofuginone + Dasatinib; first compound 0.1 µM) | relative viability ([1]; first compound 0.001 µM) | relative viability ([1]; first compound 0.003162 µM) | relative viability ([1]; first compound 0.01 µM) | relative viability ([1]; first compound 0.03162 µM) | relative viability ([1]; first compound 0.1 µM)
1 | NCI-H2023 | 0.471 | 0.455 | 0.285 | 0.217 | 0.133 | 1.11 | 0.636 | 0.826 | 0.288 | 0.139 | 0.649 | 0.609 | 0.507 | 0.241 | 0.0614 | 0.441 | 0.418 | 0.383 | 0.395 | 0.2
2 | NCI-H2085 | 0.578 | 0.432 | 0.519 | 0.399 | 0.388 | 0.935 | 0.937 | 0.974 | 1.22 | 0.59 | 0.252 | 0.226 | 0.259 | 0.269 | 0.237 | 0.685 | 0.703 | 0.686 | 0.705 | 0.574
3 | NCI-H2087 | 0.515 | 0.568 | 0.563 | 0.347 | 0.292 | 1.28 | 1.14 | 1.04 | 1.29 | 0.331 | 0.834 | 1.16 | 0.9 | 0.808 | 0.522 | 0.487 | 0.535 | 0.424 | 0.44 | 0.362
4 | NCI-H2126 | 0.827 | 0.837 | 0.666 | 0.555 | 0.52 | 1.28 | 1.19 | 1.16 | 1.17 | 0.947 | 0.661 | 0.663 | 0.635 | 0.562 | 0.405 | 0.538 | 0.56 | 0.511 | 0.512 | 0.488
5 | NCI-H2170 | 0.942 | 0.875 | 0.79 | 0.463 | 0.395 | 0.987 | 1 | 0.968 | 0.478 | 1.03 | 0.623 | 0.639 | 0.575 | 0.444 | 0.473 | 0.412 | 0.416 | 0.411 | 0.392 | 0.434
6 | NCI-H2228 | 0.524 | 0.394 | 0.367 | 0.199 | 0.286 | 0.908 | 1.08 | 0.777 | 0.325 | 0.146 | 0.622 | 0.488 | 0.48 | 0.236 | 0.0746 | 0.32 | 0.332 | 0.307 | 0.338 | 0.172
7 | NCI-H2347 | 0.691 | 0.511 | 0.549 | 0.474 | 0.469 | 1.35 | 0.929 | 0.994 | 0.841 | 1 | 0.299 | 0.308 | 0.334 | 0.281 | 0.194 | 0.535 | 0.521 | 0.53 | 0.477 | 0.317
8 | NCI-H2405 | 0.807 | 0.759 | 0.671 | 0.562 | 0.41 | 1.11 | 1.1 | 1.03 | 1.02 | 0.888 | 0.21 | 0.246 | 0.241 | 0.209 | 0.223 | 0.423 | 0.436 | 0.414 | 0.396 | 0.337
9 | NCI-H3122 | 0.258 | 0.251 | 0.277 | 0.346 | 0.28 | 0.931 | 0.946 | 0.963 | 0.96 | 0.987 | 0.852 | 0.658 | 0.735 | 0.806 | 0.66 | 0.379 | 0.37 | 0.356 | 0.355 | 0.383
10 | PC-3 [JPC-3] |  | 0.728 | 0.388 | 0.536 | 0.516 | 1.02 | 1.04 | 0.981 | 0.996 | 1.08 | 0.933 | 0.966 | 0.955 | 1.02 | 1.03 | 0.501 | 0.453 | 0.456 | 0.473 | 0.443
11 | PC-14 |  | 0.57 | 0.258 | 0.27 | 0.225 | 0.937 | 0.977 | 0.859 | 0.903 | 0.8 | 0.259 | 0.305 | 0.189 | 0.0636 | 0.03 | 0.563 | 0.553 | 0.565 | 0.606 | 0.281
12 | RERF-LC-KJ | 0.812 | 0.77 | 0.245 | 0.551 | 0.561 | 0.902 | 1.01 | 0.967 | 0.853 | 0.815 | 0.875 | 0.91 | 0.764 | 0.862 | 0.633 | 0.447 | 0.436 | 0.381 | 0.416 | 0.423
13 | SK-LU-1 | 0.668 | 0.614 | 0.352 | 0.484 | 0.453 | 0.921 | 0.8 | 0.753 | 0.759 | 0.406 | 0.204 | 0.211 | 0.198 | 0.183 | 0.137 | 0.541 | 0.636 | 0.604 | 0.415 | 0.301
14 | SK-MES-1 | 0.866 | 0.703 | 0.329 | 0.333 | 0.289 | 1.06 | 1.06 | 0.911 | 0.828 | 0.611 | 0.38 | 0.429 | 0.446 | 0.283 | 0.117 | 0.657 | 0.717 | 0.621 | 0.556 | 0.228
15 | SW 1573 | 0.627 | 0.961 | 0.724 | 0.507 | 0.358 | 0.959 | 1.05 | 0.945 | 0.943 | 0.762 | 0.576 | 0.579 | 0.481 | 0.241 | 0.0881 | 0.411 | 0.389 | 0.378 | 0.357 | 0.205
